Test results taken from patent US9447157B2, “Nitration shielding peptides and methods of use thereof” (Augusta University Research Institute, Inc., priority 2013, dated 2016).

Tests used:
[1] = tested on: PKG-1α; experiment: PKG-1α nitration (IP, 3-NT blot) in transfected HEK-293T cells; assay type: cell-based, human; settings: HEK-293T expressing Y247F- or Y425F-PKG-1α, SIN-1 500 μM 30 min
Description: Cells were homogenized in 3× weight/volume of IP buffer (25 mM Hepes, pH 7.5, 150 mM NaCl, 1% NP-40, 10 mM MgCl2, 1 mM EDTA, 2% glycerol, supplemented with protease inhibitor). The homogenates were then centrifuged at 20,000 g at 4° C. for 20 min, the supernatant was collected, and the protein concentration was quantified by the Bio-Rad DC Protein Assay. To 1000 μg of total protein, 4 μg of antibody against PKG-1α was added; the volume was brought to 1 ml with IP buffer, and the mixture was nutated at 4° C. overnight. To precipitate the bound protein, 30 μl of protein G plus agarose suspension (EMD biosciences, Inc., San Diego, Calif.) was added, and the samples were nutated for 2 h at 4° C. To collect the bead-bound antibody, the samples were then centrifuged at 2000 g for 5 min at 4° C., the supernatant was removed, and the beads were washed 3× with 500 μl of IP buffer. […]
To determine the role of tyrosine 247 and tyrosine 425 in mediating the nitration dependent inhibition of PKG-1α kinase activity, Y247F- and Y425F-PKG-1α mutants were generated and expressed in HEK-293T cells. […] Protein extracts were immunoprecipitated using an antibody raised against PKG-1α and the level of nitrated PKG-1α determined by probing the membranes with an antiserum raised against 3-NT. […]

[2] = biological target: T1, PKG-1α (Homo sapiens, UniProt Q13976, Y247F); experiment: [3H]cGMP binding assay; design: transfected with an expression plasmid containing a full length WT-PKG-1α cDNA; made in house; host or cells: HEK-293T (methods); the results paragraph b527 says PASMC; settings: SIN-1 500 μM 30 min
T1 sequence (Q13976 2-671 Y247F): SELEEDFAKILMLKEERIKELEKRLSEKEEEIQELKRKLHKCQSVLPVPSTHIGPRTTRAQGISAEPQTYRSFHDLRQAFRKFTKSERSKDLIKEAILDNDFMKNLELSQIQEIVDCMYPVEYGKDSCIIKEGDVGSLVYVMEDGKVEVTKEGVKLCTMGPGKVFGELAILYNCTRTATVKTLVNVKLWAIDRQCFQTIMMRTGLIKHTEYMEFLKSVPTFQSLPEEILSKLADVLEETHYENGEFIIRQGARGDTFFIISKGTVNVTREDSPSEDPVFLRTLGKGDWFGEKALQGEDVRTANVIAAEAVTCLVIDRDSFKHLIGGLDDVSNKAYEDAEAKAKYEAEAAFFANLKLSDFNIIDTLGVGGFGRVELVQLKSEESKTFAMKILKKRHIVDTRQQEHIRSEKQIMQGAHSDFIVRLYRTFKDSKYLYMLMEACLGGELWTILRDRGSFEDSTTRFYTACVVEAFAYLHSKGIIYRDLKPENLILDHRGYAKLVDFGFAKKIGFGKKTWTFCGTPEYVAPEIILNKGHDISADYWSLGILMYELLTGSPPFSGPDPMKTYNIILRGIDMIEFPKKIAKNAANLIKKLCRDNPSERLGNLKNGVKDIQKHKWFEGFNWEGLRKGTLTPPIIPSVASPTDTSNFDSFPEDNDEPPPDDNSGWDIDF
Description: HEK-293T cells were transiently transfected with either the WT-PKG-1α or the Y247FPKG-1α cDNA using Effectene transfection reagent (Qiagen), according to the manufacturer's instructions. Briefly, the cells were split the day before the transfection to low cell densities (25%) and were transfected 24 h later. After 48 h of transfection, the cells were incubated in DMEM serum free media containing 1% FBS and antibiotics for 4 h and then treated with or without SIN-1 (500 μM), for 30 min. This method produced an approximate 70% transfection efficiency of HEK-293T cells, as measured using green fluorescent protein vectors. […]
The batches of supernatant were pooled, and 2 μg of anti-PKG-1α antibody per mg of protein were added to the extract and rocked at 4° C. […] After 15 min of agitation at 4° C., the beads were pelleted by centrifugation, and the supernatant containing the PKG-1α protein was collected, quantified using Bradford reagent, and stored at −80° C.
To assay the binding of cGMP to WT- and Y247F-PKG-1α the enzymes were saturated with cGMP by incubating 50 μl aliquots of the diluted PKG constructs for 60 min at room temperature with 50 μl of [^3H]cGMP and 150 μl of cGMP-binding assay mixture (25 mM K2HPO4, 25 mM KH2PO4, 1 mM EDTA, pH 6.8, 2M NaCl, 200 μM 3-isobutyl-1-methylxanthine). […] The dissociation constant (Kd) values were determined using GraphPad Prism graphics.

Substance: 3-morpholinosydnonimine N-ethylcarbamide [SIN-1]
- Nitration levels of Y247F- or Y425F-PKG-1α [1]: no significant increases
- Maximal [3H]cGMP binding to Y247F-PKG-1α [2]: but not to the Y247F-PKG-1α mutant
